Data from paper PMC10905675, “INX-315, a Selective CDK2 Inhibitor, Induces Cell Cycle Arrest and Senescence in Solid Tumors” (Cancer Discovery, 2023).

How the values were obtained:
Assay in all cases: SelectScreen LanthaScreen Binding
Conditions in all cases: INX-0315 at 100nM
[1] = biological target: T1, CDK11/cyclin C (Homo sapiens, UniProt Q9BWU1)
T1 construct: purchased Thermo Fisher Scientific SelectScreen (plus Nanosyn / Reaction Biology for CDK/cyclin lines)
Text: (§1) INX-315 was first evaluated in the SelectScreen Biochemical Kinase Profiling at Thermo Fisher Scientific (Madison, WI). The primary screen consisted of INX-315 dosed at a single concentration of 100 nmol/L in 1% DMSO across each platform within the SelectScreen array of assays, LanthaScreen Eu Kinase Binding Assay; AdaptaScreen; and Z'LyteScreen using preestablished conditions at Thermo Fisher Scientific as shown in Supplementary Table S2. […] The follow-up screen consisted of 10-point dose–response curves for INX-315 from 1 µmol/L to 0.0495 nmol/L.

[2] = biological target: T2, MAP2K5 (MEK5) (Homo sapiens, UniProt Q13163)
T2 construct: purchased Thermo Fisher Scientific SelectScreen (plus Nanosyn / Reaction Biology for CDK/cyclin lines)
Text: as §1

[3] = biological target: T3, STK38L (NDR2) (Homo sapiens, UniProt Q9Y2H1)
T3 construct: purchased Thermo Fisher Scientific SelectScreen (plus Nanosyn / Reaction Biology for CDK/cyclin lines)
Text: as §1

[4] = biological target: T4, KIT A829P (Homo sapiens, UniProt P10721, A829P)
T4 construct: purchased Thermo Fisher Scientific SelectScreen (plus Nanosyn / Reaction Biology for CDK/cyclin lines)
Text: as §1

[5] = biological target: T5, ZAK (Homo sapiens, UniProt Q9NYL2)
T5 construct: purchased Thermo Fisher Scientific SelectScreen (plus Nanosyn / Reaction Biology for CDK/cyclin lines)
Text: as §1

[6] = biological target: T6, DYRK2 (Homo sapiens, UniProt Q92630)
T6 construct: purchased Thermo Fisher Scientific SelectScreen (plus Nanosyn / Reaction Biology for CDK/cyclin lines)
Text: as §1

[7] = biological target: T7, MAP2K1 (MEK1) (Homo sapiens, UniProt Q02750)
T7 construct: purchased Thermo Fisher Scientific SelectScreen (plus Nanosyn / Reaction Biology for CDK/cyclin lines)
Text: as §1

[8] = biological target: T8, RET V804M (Homo sapiens, UniProt P07949, V804M)
T8 construct: purchased Thermo Fisher Scientific SelectScreen (plus Nanosyn / Reaction Biology for CDK/cyclin lines)
Text: as §1

[9] = biological target: T9, ERN2 (Homo sapiens, UniProt Q76MJ5)
T9 construct: purchased Thermo Fisher Scientific SelectScreen (plus Nanosyn / Reaction Biology for CDK/cyclin lines)
Text: as §1

[10] = biological target: T10, PRKACB (PRKAC beta) (Homo sapiens, UniProt P22694)
T10 construct: purchased Thermo Fisher Scientific SelectScreen (plus Nanosyn / Reaction Biology for CDK/cyclin lines)
Text: as §1

[11] = biological target: T11, DDR2 T654M (Homo sapiens, UniProt Q16832, T654M)
T11 construct: purchased Thermo Fisher Scientific SelectScreen (plus Nanosyn / Reaction Biology for CDK/cyclin lines)
Text: as §1

[12] = biological target: T12, RAF1 (cRAF) Y340D Y341D (Homo sapiens, UniProt P04049, Y340D/Y341D)
T12 construct: purchased Thermo Fisher Scientific SelectScreen (plus Nanosyn / Reaction Biology for CDK/cyclin lines)
Text: as §1

[13] = biological target: T13, ADCK3 (Homo sapiens, UniProt Q8NI60)
T13 construct: purchased Thermo Fisher Scientific SelectScreen (plus Nanosyn / Reaction Biology for CDK/cyclin lines)
Text: as §1

[14] = biological target: T14, MYLK4 (Homo sapiens, UniProt Q86YV6)
T14 construct: purchased Thermo Fisher Scientific SelectScreen (plus Nanosyn / Reaction Biology for CDK/cyclin lines)
Text: as §1

[15] = biological target: T15, EGFR (ErbB1) d747-749 A750P (Homo sapiens, UniProt P00533, A750P/DEL747-749)
T15 construct: purchased Thermo Fisher Scientific SelectScreen (plus Nanosyn / Reaction Biology for CDK/cyclin lines)
Text: as §1

[16] = biological target: T16, AXL R499C (Homo sapiens, UniProt P30530, R499C)
T16 construct: purchased Thermo Fisher Scientific SelectScreen (plus Nanosyn / Reaction Biology for CDK/cyclin lines)
Text: as §1

[17] = biological target: T17, BRAF V599E (Homo sapiens, UniProt P15056, V600E)
T17 construct: purchased Thermo Fisher Scientific SelectScreen (plus Nanosyn / Reaction Biology for CDK/cyclin lines)
Text: as §1

[18] = biological target: T18, AAK1 (Homo sapiens, UniProt Q2M2I8)
T18 construct: purchased Thermo Fisher Scientific SelectScreen (plus Nanosyn / Reaction Biology for CDK/cyclin lines)
Text: as §1

[19] = biological target: T19, PKN2 (PRK2) (Homo sapiens, UniProt Q16513)
T19 construct: purchased Thermo Fisher Scientific SelectScreen (plus Nanosyn / Reaction Biology for CDK/cyclin lines)
Text: as §1

[20] = biological target: T20, RET G691S (Homo sapiens, UniProt P07949, G691S)
T20 construct: purchased Thermo Fisher Scientific SelectScreen (plus Nanosyn / Reaction Biology for CDK/cyclin lines)
Text: as §1

[21] = biological target: T21, VRK2 (Homo sapiens, UniProt Q86Y07)
T21 construct: purchased Thermo Fisher Scientific SelectScreen (plus Nanosyn / Reaction Biology for CDK/cyclin lines)
Text: as §1

[22] = biological target: T22, ALK F1174L (Homo sapiens, UniProt Q9UM73, F1174L)
T22 construct: purchased Thermo Fisher Scientific SelectScreen (plus Nanosyn / Reaction Biology for CDK/cyclin lines)
Text: as §1

[23] = biological target: T23, HUNK (Homo sapiens, UniProt P57058)
T23 construct: purchased Thermo Fisher Scientific SelectScreen (plus Nanosyn / Reaction Biology for CDK/cyclin lines)
Text: as §1

[24] = biological target: T24, DDR2 N456S (Homo sapiens, UniProt Q16832, N456S)
T24 construct: purchased Thermo Fisher Scientific SelectScreen (plus Nanosyn / Reaction Biology for CDK/cyclin lines)
Text: as §1

[25] = biological target: T25, ACVR2A (Homo sapiens, UniProt P27037)
T25 construct: purchased Thermo Fisher Scientific SelectScreen (plus Nanosyn / Reaction Biology for CDK/cyclin lines)
Text: as §1

[26] = biological target: T26, STK17B (DRAK2) (Homo sapiens, UniProt O94768)
T26 construct: purchased Thermo Fisher Scientific SelectScreen (plus Nanosyn / Reaction Biology for CDK/cyclin lines)
Text: as §1

[27] = biological target: T27, MLK4 (Homo sapiens, UniProt Q5TCX8)
T27 construct: purchased Thermo Fisher Scientific SelectScreen (plus Nanosyn / Reaction Biology for CDK/cyclin lines)
Text: as §1

[28] = biological target: T28, EPHA6 (Homo sapiens, UniProt Q9UF33)
T28 construct: purchased Thermo Fisher Scientific SelectScreen (plus Nanosyn / Reaction Biology for CDK/cyclin lines)
Text: as §1

[29] = biological target: T29, DDR1 (Homo sapiens, UniProt Q08345)
T29 construct: purchased Thermo Fisher Scientific SelectScreen (plus Nanosyn / Reaction Biology for CDK/cyclin lines)
Text: as §1

[30] = biological target: T30, GRK1 (Homo sapiens, UniProt Q15835)
T30 construct: purchased Thermo Fisher Scientific SelectScreen (plus Nanosyn / Reaction Biology for CDK/cyclin lines)
Text: as §1

[31] = biological target: T31, TTK (Homo sapiens, UniProt P33981)
T31 construct: purchased Thermo Fisher Scientific SelectScreen (plus Nanosyn / Reaction Biology for CDK/cyclin lines)
Text: as §1

[32] = biological target: T32, MAP3K10 (MLK2) (Homo sapiens, UniProt Q02779)
T32 construct: purchased Thermo Fisher Scientific SelectScreen (plus Nanosyn / Reaction Biology for CDK/cyclin lines)
Text: as §1

[33] = biological target: T33, KIT D820E (Homo sapiens, UniProt P10721, D820E)
T33 construct: purchased Thermo Fisher Scientific SelectScreen (plus Nanosyn / Reaction Biology for CDK/cyclin lines)
Text: as §1

[34] = biological target: T34, CDK14 (PFTK1)/cyclin Y (Homo sapiens, UniProt O94921)
T34 construct: purchased Thermo Fisher Scientific SelectScreen (plus Nanosyn / Reaction Biology for CDK/cyclin lines)
Text: as §1

[35] = biological target: T35, ACVR1 (ALK2) R206H (Homo sapiens, UniProt Q04771, R206H)
T35 construct: purchased Thermo Fisher Scientific SelectScreen (plus Nanosyn / Reaction Biology for CDK/cyclin lines)
Text: as §1

[36] = biological target: T36, DAPK2 (Homo sapiens, UniProt Q9UIK4)
T36 construct: purchased Thermo Fisher Scientific SelectScreen (plus Nanosyn / Reaction Biology for CDK/cyclin lines)
Text: as §1

[37] = biological target: T37, MAP2K6 (MKK6) (Homo sapiens, UniProt P52564)
T37 construct: purchased Thermo Fisher Scientific SelectScreen (plus Nanosyn / Reaction Biology for CDK/cyclin lines)
Text: as §1

T5 sequence (Q9NYL2 whole entry): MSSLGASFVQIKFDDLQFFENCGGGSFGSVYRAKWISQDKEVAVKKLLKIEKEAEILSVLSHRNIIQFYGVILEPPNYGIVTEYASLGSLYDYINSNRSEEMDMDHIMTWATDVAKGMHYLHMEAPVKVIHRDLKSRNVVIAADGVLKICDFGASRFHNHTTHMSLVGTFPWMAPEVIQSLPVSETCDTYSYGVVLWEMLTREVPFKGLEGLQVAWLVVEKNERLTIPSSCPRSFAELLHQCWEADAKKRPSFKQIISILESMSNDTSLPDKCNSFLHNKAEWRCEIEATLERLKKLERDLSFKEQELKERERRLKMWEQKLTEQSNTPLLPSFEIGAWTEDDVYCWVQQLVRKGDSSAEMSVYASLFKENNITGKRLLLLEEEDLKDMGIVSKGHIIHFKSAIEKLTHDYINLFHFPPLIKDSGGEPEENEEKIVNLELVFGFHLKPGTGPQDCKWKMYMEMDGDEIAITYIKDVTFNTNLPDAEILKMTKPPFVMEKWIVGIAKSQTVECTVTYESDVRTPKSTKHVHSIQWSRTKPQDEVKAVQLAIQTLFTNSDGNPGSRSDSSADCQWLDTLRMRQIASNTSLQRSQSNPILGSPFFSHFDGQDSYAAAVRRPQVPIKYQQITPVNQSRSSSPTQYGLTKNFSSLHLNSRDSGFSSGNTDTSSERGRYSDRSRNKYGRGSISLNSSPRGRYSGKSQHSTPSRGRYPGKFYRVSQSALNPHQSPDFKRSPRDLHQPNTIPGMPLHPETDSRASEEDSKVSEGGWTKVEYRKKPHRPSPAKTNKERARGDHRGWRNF
T34 sequence (O94921 whole entry): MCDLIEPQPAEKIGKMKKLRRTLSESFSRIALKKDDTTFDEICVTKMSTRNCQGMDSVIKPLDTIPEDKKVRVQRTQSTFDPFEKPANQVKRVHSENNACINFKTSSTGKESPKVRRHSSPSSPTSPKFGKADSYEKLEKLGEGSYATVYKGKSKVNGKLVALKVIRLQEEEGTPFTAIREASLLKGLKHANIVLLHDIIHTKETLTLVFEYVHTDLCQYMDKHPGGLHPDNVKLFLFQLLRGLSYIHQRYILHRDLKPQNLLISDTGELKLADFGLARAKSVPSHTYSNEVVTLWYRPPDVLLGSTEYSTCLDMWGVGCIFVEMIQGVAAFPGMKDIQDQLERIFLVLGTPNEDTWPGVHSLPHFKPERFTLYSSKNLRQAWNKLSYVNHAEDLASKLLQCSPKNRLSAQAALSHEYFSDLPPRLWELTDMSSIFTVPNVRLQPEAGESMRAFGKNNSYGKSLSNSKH
T34 sequence (Q8ND76 whole entry partner): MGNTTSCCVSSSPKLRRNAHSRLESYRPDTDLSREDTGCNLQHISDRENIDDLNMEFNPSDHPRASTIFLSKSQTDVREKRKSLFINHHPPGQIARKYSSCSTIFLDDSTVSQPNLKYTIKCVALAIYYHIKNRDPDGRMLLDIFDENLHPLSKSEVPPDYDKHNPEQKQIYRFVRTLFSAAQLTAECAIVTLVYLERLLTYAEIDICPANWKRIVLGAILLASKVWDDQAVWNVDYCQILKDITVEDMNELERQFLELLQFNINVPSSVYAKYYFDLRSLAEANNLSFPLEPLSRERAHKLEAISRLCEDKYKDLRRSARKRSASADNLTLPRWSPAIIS
T30 sequence (Q15835 whole entry): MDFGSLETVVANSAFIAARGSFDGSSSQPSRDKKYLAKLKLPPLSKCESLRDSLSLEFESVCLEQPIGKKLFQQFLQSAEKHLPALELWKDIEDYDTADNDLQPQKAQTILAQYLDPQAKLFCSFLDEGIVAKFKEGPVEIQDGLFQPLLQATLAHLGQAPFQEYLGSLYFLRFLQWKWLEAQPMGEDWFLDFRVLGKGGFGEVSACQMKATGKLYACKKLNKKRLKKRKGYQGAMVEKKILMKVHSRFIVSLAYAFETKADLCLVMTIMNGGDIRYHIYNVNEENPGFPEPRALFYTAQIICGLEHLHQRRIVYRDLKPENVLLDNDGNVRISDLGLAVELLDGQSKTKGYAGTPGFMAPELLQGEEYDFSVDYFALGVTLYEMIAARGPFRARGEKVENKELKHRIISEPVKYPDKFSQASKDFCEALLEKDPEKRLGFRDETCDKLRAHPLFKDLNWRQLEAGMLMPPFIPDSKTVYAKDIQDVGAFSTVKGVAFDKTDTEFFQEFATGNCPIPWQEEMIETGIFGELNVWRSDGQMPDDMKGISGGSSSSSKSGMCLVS
T18 sequence (Q2M2I8 whole entry): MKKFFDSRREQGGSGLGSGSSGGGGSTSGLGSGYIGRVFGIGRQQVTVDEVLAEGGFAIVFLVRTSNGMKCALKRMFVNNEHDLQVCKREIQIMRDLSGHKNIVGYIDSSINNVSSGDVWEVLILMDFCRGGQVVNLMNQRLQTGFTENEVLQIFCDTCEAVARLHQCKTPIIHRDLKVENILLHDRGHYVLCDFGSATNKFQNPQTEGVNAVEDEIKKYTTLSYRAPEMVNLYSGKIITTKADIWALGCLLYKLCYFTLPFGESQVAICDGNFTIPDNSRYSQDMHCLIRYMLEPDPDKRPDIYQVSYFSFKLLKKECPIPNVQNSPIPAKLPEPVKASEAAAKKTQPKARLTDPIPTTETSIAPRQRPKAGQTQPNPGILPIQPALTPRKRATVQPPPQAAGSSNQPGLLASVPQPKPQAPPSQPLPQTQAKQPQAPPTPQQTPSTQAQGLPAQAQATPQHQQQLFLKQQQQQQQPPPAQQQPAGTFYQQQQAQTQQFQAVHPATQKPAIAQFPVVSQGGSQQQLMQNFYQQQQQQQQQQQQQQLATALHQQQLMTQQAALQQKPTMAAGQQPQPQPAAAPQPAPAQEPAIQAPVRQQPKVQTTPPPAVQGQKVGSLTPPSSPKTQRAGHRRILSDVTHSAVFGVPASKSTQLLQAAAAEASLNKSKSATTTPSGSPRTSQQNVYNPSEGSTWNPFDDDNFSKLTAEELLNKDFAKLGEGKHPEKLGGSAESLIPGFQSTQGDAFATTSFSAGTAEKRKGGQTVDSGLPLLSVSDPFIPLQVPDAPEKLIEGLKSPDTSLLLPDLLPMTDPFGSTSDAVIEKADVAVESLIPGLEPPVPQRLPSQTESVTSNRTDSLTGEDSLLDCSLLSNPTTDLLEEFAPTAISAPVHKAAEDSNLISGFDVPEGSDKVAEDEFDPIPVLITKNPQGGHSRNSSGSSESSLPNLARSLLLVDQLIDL
T3 sequence (Q9Y2H1 whole entry): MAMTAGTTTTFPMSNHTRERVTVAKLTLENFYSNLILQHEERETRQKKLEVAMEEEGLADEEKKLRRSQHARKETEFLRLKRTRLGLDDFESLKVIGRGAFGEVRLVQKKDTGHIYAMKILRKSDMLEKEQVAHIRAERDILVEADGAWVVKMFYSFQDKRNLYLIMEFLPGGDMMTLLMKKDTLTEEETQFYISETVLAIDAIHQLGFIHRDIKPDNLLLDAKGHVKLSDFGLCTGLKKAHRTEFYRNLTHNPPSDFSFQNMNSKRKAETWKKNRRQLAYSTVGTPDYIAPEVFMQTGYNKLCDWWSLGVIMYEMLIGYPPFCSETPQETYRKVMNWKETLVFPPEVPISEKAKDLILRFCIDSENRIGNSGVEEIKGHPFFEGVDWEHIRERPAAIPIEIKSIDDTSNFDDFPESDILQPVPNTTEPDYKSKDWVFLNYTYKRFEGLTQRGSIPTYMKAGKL
T4 sequence (P10721 26-976 A829P): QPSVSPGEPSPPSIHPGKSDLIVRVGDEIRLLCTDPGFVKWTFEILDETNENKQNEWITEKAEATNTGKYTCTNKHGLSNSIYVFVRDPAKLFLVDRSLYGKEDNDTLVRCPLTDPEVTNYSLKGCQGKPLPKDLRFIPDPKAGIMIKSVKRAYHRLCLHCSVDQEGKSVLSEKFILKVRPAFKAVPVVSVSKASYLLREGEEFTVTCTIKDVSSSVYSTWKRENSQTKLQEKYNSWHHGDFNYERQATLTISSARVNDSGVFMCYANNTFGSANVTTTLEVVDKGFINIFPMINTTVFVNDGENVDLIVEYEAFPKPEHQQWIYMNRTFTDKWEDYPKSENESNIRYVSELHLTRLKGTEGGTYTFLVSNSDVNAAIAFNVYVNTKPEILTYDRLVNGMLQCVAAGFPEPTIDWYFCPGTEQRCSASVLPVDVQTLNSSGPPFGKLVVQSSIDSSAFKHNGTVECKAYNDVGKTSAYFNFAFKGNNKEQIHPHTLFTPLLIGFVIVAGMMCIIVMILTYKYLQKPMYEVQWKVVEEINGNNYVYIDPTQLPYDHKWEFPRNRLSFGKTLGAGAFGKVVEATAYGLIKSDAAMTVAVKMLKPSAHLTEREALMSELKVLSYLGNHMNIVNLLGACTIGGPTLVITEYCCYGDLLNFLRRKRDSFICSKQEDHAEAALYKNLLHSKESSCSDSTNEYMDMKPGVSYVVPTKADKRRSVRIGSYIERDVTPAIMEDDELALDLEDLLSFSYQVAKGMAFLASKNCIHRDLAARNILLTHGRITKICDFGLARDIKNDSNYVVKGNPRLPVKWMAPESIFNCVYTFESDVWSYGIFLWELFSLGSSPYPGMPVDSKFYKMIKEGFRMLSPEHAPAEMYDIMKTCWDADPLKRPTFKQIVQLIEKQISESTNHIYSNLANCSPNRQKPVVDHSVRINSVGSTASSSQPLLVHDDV
T35 sequence (Q04771 21-509 R206H): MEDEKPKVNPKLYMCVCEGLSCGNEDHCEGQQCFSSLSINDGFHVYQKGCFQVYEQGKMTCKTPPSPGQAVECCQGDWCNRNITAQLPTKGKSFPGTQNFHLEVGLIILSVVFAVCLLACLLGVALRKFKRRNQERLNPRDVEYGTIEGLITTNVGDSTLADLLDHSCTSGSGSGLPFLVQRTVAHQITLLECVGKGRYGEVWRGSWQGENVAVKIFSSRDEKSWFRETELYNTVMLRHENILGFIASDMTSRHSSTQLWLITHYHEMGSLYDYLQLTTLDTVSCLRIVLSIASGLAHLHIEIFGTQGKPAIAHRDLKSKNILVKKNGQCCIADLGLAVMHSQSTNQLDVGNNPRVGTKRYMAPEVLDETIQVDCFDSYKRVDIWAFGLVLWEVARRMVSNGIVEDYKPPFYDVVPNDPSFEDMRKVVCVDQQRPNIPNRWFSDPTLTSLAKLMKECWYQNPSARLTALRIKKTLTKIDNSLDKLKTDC

NS(=O)(=O)c1ccc(Nc2ncc3cc4n(c3n2)C2(CCCCC2)C(=O)NN4)cc1 [INX-315]
inhibition at 0.1 µM [1]: 1% | inhibition at 0.1 µM [2]: 27% | inhibition at 0.1 µM [3]: 0% | inhibition at 0.1 µM [4]: 28% | inhibition at 0.1 µM [5]: 3% | inhibition at 0.1 µM [6]: -4% | inhibition at 0.1 µM [7]: 5% | inhibition at 0.1 µM [8]: 21% | inhibition at 0.1 µM [9]: 2% | inhibition at 0.1 µM [10]: 1% | inhibition at 0.1 µM [11]: 26% | inhibition at 0.1 µM [12]: -2% | inhibition at 0.1 µM [13]: 49% | inhibition at 0.1 µM [14]: 20% | inhibition at 0.1 µM [15]: 12% | inhibition at 0.1 µM [16]: 1% | inhibition at 0.1 µM [17]: -2% | inhibition at 0.1 µM [18]: 77% | inhibition at 0.1 µM [19]: 11% | inhibition at 0.1 µM [20]: 35% | inhibition at 0.1 µM [21]: 2% | inhibition at 0.1 µM [22]: 12% | inhibition at 0.1 µM [23]: -5% | inhibition at 0.1 µM [24]: 14% | inhibition at 0.1 µM [25]: 3% | inhibition at 0.1 µM [26]: 4% | inhibition at 0.1 µM [27]: -5% | inhibition at 0.1 µM [28]: 10% | inhibition at 0.1 µM [29]: 3% | inhibition at 0.1 µM [30]: 27% | inhibition at 0.1 µM [31]: 49% | inhibition at 0.1 µM [32]: 8% | inhibition at 0.1 µM [33]: 12% | inhibition at 0.1 µM [34]: 24% | inhibition at 0.1 µM [35]: -1% | inhibition at 0.1 µM [36]: 11% | inhibition at 0.1 µM [37]: -3%
